Values joined by “and” are separate entries in the source; they are usually repeats but may differ in a detail not shown here. Equal values may be shown once. Where a SMILES comes first, the peptide text is derived from it. [ ]: non-standard residue; d: D form. Hyp = O=C(O)[C@@H]1C[C@@H](O)CN1
What was measured:
[1] = system: CCL3/MIP-1 alpha; assay: Example 8 main study Luminex, LPS hPBMCs: CCL3/MIP-1 alpha; format: cell-based, human
Method: (§1) Human PBMCs were pretreated with YY-101, YDE-011, YDE-043 or reference compound; Xiidra® at various concentration (ranging from […] to 500 nM) for 2 h before stimulation. An equal volume of 0.5% DMSO was used as a vehicle control. Then, the cells were treated with LPS at 5 ug/ml, which was selected based on the pilot study. The supernatants from treated cells were harvested at 24 h and placed in a 96 well for Luminex cytokine & chemokine profiling using a Luminex 200 multiplex assay (Luminex; R&D system, USA).
(§2) The main study arm with triplicate wells per group in a 24-well plate: • 1. Blank • 2. PBMC: 0.5% DMSO • 3. PBMC+LPS (5 ug/ml) • 4. PBMC+YY-101 500 nM • 5. PBMC+YY-101 50 nM • 6. PBMC+YY-101 5 nM • 7. PBMC+YY-101 0.5 nM • 8. PBMC+LPS (5 ug/ml)+Xiidra® 500 nM • 9. PBMC+LPS (5 ug/ml)+Xiidra® 50 nM • 10. PBMC+LPS (5 ug/ml)+Xiidra® 5 nM • 11. PBMC+LPS (5 ug/ml)+Xiidra® 0.5 nM • 12. PBMC+LPS (5 ug/ml)+Xiidra® 0.05 nM • 13. PBMC+LPS (5 ug/ml)+Xiidra® 0.005 nM • 14. PBMC+LPS (5 ug/ml)+YY-101 500 nM • 15. PBMC+LPS (5 ug/ml)+YY-101 50 nM • 16. PBMC+LPS (5 ug/ml)+YY-101 5 nM • 17. PBMC+LPS (5 ug/ml)+YY-101 0.5 nM • 18. PBMC+LPS (5 ug/ml)+YY-101 0.05 nM • 19. PBMC+LPS (5 ug/ml)+YY-101 0.005 nM • 20. PBMC+LPS (5 ug/ml)+YDE-011 500 nM • 21. PBMC+LPS (5 ug/ml)+YDE-011 50 nM • 22. PBMC+LPS (5 ug/ml)+YDE-011 5 nM • 23. PBMC+LPS (5 ug/ml)+YDE-011 0.5 nM • 24. PBMC+LPS (5 ug/ml)+YDE-011 0.05 nM • 25. PBMC+LPS (5 ug/ml)+YDE-011 0.005 nM • 26. PBMC+LPS (5 ug/ml)+YDE-043 500 nM • 27. PBMC+LPS (5 ug/ml)+YDE-043 50 nM • 28. PBMC+LPS (5 ug/ml)+YDE-043 5 nM • 29. PBMC+LPS (5 ug/ml)+YDE-043 0.5 nM • 30. PBMC+LPS (5 ug/ml)+YDE-043 0.05 nM • 31. PBMC+LPS (5 ug/ml)+YDE-043 0.005 nM
(§3) Multiplex assay was used to measure 30 cytokines and chemokines. The 1:200 diluted cell supernatant and serial dilution of the standard were dispensed into a 96 well plate at 50 ul/well. Then, the pre-mixed cocktail of antibody-coated magnetic beads was dispensed at 50 ul/well and incubated at room temperature for 2 h in a horizontal orbital microplate shaker at 800±500 rpm. The beads were washed using a magnetic device to prevent loss. The biotin-antibody was dispensed in 50 ul of each well and incubated at room temperature for 1 h in a shaker at 800±500 rpm. After washing, streptavidin-PE was added at 50 ul/well and incubated at room temperature for 30 min in a shaker under the same conditions. Finally, after washing, wash buffer (100 ul/well) was added to the plate and incubated in a shaker for 2 min. The Luminex™ 200 setting were set according to the manufacturer's protocol. The data was calculated with a standard five-parameter logistic nonlinear regression analysis of the data (xPonent software 4.2, USA). Results were presented as concentration (ng/ml or pg/ml).

[2] = system: cytokine and chemokine release in human peripheral blood mononuclear cells (hPBMCs); assay: Luminex multiplex, 30 cytokines and chemokines, LPS stimulated hPBMCs, main study (Example 8, Study 1), whole panel; format: cell-based
Method: Human PBMCs frozen in a cryopreserve was thawed, washed with Hank's Balanced Salt Solution containing 10% Fetal bovine serum, and seeded onto a 24-well plate at a density of 1×10^6 cells/well with culture RPMI media containing 10% Fetal bovine serum in growth media in a 24 well plate for 12, 24, and 48 hrs and maintained at 37° C. in an atmosphere of 95% air and 5% CO2.
as §1, §2
as §3, with “After washing, streptavidin-PE was added at 50 ul/well and incubated at room temperature for 30 min in a shaker under the same conditions. Finally, after washing, wash buffer (100 ul/well) was added to the plate and incubated in a shaker for 2 min. The Luminex™ 200 setting were set according to the manufacturer's protocol.” left out, “Results were presented as concentration (ng/ml or pg/ml).” left out

[3] = system: Leptin; assay: Example 8 main study Luminex, LPS hPBMCs: Leptin; format: cell-based, human
Method: as §1, §2, §3

[4] = PBMC + LPS(5 ug/ml) + test article 0.005 nM, Mean
[5] = PBMC + LPS(5 ug/ml) + test article 0.005 nM, single replicates
[6] = PBMC + LPS(5 ug/ml) + test article 0.05 nM, Mean
[7] = PBMC + LPS(5 ug/ml) + test article 0.05 nM, single replicates
[8] = PBMC + LPS(5 ug/ml) + test article 0.5 nM, Mean
[9] = PBMC + LPS(5 ug/ml) + test article 0.5 nM, single replicates
[10] = PBMC + LPS(5 ug/ml) + test article 5 nM, Mean
[11] = PBMC + LPS(5 ug/ml) + test article 5 nM, single replicates
[12] = PBMC + LPS(5 ug/ml) + test article 50 nM, Mean
[13] = PBMC + LPS(5 ug/ml) + test article 50 nM, single replicates
[14] = PBMC + LPS(5 ug/ml) + test article 500 nM, Mean
[15] = PBMC + LPS(5 ug/ml) + test article 500 nM, single replicates
[16] = PBMC + test article 0.5 nM, no LPS, Mean
[17] = PBMC + test article 0.5 nM, no LPS, single replicates
[18] = PBMC + test article 5 nM, no LPS, Mean
[19] = PBMC + test article 5 nM, no LPS, single replicates
[20] = PBMC + test article 0.05 uM, no LPS, Mean
[21] = PBMC + test article 0.05 uM, no LPS, single replicates
[22] = PBMC + test article 50 nM, no LPS, Mean
[23] = PBMC + test article 50 nM, no LPS, single replicates
[24] = PBMC + test article 500 nM, no LPS, Mean
[25] = PBMC + test article 500 nM, no LPS, single replicates
[26] = PBMC + LPS(5 ug/ml), test article 0.005 nM
[27] = PBMC + LPS(5 ug/ml), test article 0.05 nM
[28] = PBMC + LPS(5 ug/ml), test article 0.5 nM
[29] = PBMC + LPS(5 ug/ml), test article 5 nM
[30] = PBMC + LPS(5 ug/ml), test article 50 nM
[31] = PBMC + LPS(5 ug/ml), test article 500 nM
[32] = PBMC without LPS, test article 0.5 nM
[33] = PBMC without LPS, test article 5 nM
[34] = PBMC without LPS, test article 0.05 uM
[35] = PBMC without LPS, test article 50 nM
[36] = PBMC without LPS, test article 500 nM

CC(C)C[C@H](NC(=O)CNC(=O)[C@H](CC(=O)O)NC(=O)[C@H](CCC(N)=O)NC(=O)CNC(=O)[C@@H]1C[C@@H](O)CN1)C(=O)N[C@@H](C)C(=O)NCC(=O)N1CCC[C@H]1C(=O)N[C@@H](CCCCN)C(=O)O [YY-101] (H-[Hyp]GQDGLAGPK-OH; N-terminus and C-terminus assumed)
CCL3/MIP-1 alpha Concentration [1, 4]: 33793.5 pg/mL | CCL3/MIP-1 alpha MFI [1, 4]: 46.8 | CCL3/MIP-1 alpha Concentration [1, 5]: 35134.4 pg/mL and 33380.1 pg/mL and 32865.8 pg/mL | CCL3/MIP-1 alpha MFI [1, 5]: 49.5 and 46.0 and 45.0 | CCL3/MIP-1 alpha Concentration [1, 6]: 36420.8 pg/mL | CCL3/MIP-1 alpha MFI [1, 6]: 52.2 | CCL3/MIP-1 alpha Concentration [1, 7]: 35866.0 pg/ml (2×) and 37530.4 pg/ml | CCL3/MIP-1 alpha MFI [1, 7]: 51.0 (2×) and 54.5 | CCL3/MIP-1 alpha Concentration [1, 8]: 34955.7 pg/mL | CCL3/MIP-1 alpha MFI [1, 8]: 49.2 | CCL3/MIP-1 alpha Concentration [1, 9]: 36107.4 pg/mL and 33380.1 pg/mL and 35379.6 pg/mL | CCL3/MIP-1 alpha MFI [1, 9]: 51.5 and 46.0 and 50.0 | CCL3/MIP-1 alpha Concentration [1, 10]: 34545.7 pg/mL | CCL3/MIP-1 alpha MFI [1, 10]: 48.3 | CCL3/MIP-1 alpha Concentration [1, 11]: 33380.1 pg/mL and 35866.0 pg/mL and 34390.9 pg/mL | CCL3/MIP-1 alpha MFI [1, 11]: 46.0 and 51.0 and 48.0 | CCL3/MIP-1 alpha Concentration [1, 12]: 33677.2 pg/mL | CCL3/MIP-1 alpha MFI [1, 12]: 46.7 | CCL3/MIP-1 alpha Concentration [1, 13]: 31818.4 pg/mL and 36347.5 pg/mL and 32865.8 pg/mL | CCL3/MIP-1 alpha MFI [1, 13]: 43.0 and 52.0 and 45.0 | CCL3/MIP-1 alpha Concentration [1, 14]: 33967.7 pg/mL | CCL3/MIP-1 alpha MFI [1, 14]: 47.2 | CCL3/MIP-1 alpha Concentration [1, 15]: 33635.0 pg/mL and 34887.9 pg/mL and 33380.1 pg/mL | CCL3/MIP-1 alpha MFI [1, 15]: 46.5 and 49.0 and 46.0 | CCL3/MIP-1 alpha Concentration [1, 16]: 16345.0 pg/mL | CCL3/MIP-1 alpha MFI [1, 16]: 19.5 | CCL3/MIP-1 alpha Concentration [1, 17]: 15903.7 pg/mL and 16786.4 pg/mL | CCL3/MIP-1 alpha MFI [1, 17]: 19.0 and 20.0 | CCL3/MIP-1 alpha Concentration [1, 18]: 14259.0 pg/mL | CCL3/MIP-1 alpha MFI [1, 18]: 17.3 | CCL3/MIP-1 alpha Concentration [1, 19]: 14014.0 pg/mL and 14504.0 pg/mL | CCL3/MIP-1 alpha MFI [1, 19]: 17.0 and 17.5 | CCL3/MIP-1 alpha Concentration [1, 20]: 13904.3 pg/mL | CCL3/MIP-1 alpha MFI [1, 20]: 17.0 | CCL3/MIP-1 alpha Concentration [1, 21]: 15903.7 pg/mL and 11904.9 pg/mL | CCL3/MIP-1 alpha MFI [1, 21]: 19.0 and 15.0 | CCL3/MIP-1 alpha Concentration [1, 22]: 14246.1 pg/mL | CCL3/MIP-1 alpha MFI [1, 22]: 17.3 | CCL3/MIP-1 alpha Concentration [1, 23]: 13510.6 pg/mL and 14981.7 pg/mL | CCL3/MIP-1 alpha MFI [1, 23]: 16.5 and 18.0 | CCL3/MIP-1 alpha Concentration [1, 24]: 14014.0 pg/mL | CCL3/MIP-1 alpha MFI [1, 24]: 17.0 | CCL3/MIP-1 alpha Concentration [1, 25]: 14014.0 pg/mL | CCL3/MIP-1 alpha MFI [1, 25]: 17.0 | LPS-induced CCL-3 (in words) ([1]; at as low as 5 μM, LPS 5 ug/mL 24 hrs): significantly reduced | LPS-induced cytokine/chemokine levels, whole panel (in words) ([2]; LPS 5 ug/mL 24 hrs, up to 500 nM): potently and significantly reduced pro-inflammatory cytokine/chemokine production | basal levels of cytokine production (in words) ([2]; no LPS): didn't affect the basal levels of cytokine production | Leptin Concentration (pg/ml), Mean [3, 26]: 16686.7 pg/mL | Leptin Concentration (pg/ml), single replicates [3, 26]: 19789.4 pg/ml (2×) and 10481.4 pg/ml | Leptin Concentration (pg/ml), Mean [3, 27]: 16746.9 pg/mL | Leptin Concentration (pg/ml), single replicates [3, 27]: 17222.7 pg/ml (2×) and 15795.3 pg/ml | Leptin Concentration (pg/ml), Mean [3, 28]: 16226.8 pg/mL | Leptin Concentration (pg/ml), single replicates [3, 28]: 17222.7 pg/ml (2×) and 14234.9 pg/ml | Leptin Concentration (pg/ml), Mean [3, 29]: 21157.1 pg/mL | Leptin Concentration (pg/ml), single replicates [3, 29]: 22079.2 pg/mL and 17222.7 pg/mL and 24169.3 pg/mL | Leptin Concentration (pg/ml), Mean [3, 30]: 15230.8 pg/mL | Leptin Concentration (pg/ml), single replicates [3, 30]: 17222.7 pg/ml and 14234.9 pg/ml (2×) | Leptin Concentration (pg/ml), Mean [3, 31]: 18933.8 pg/mL | Leptin Concentration (pg/ml), single replicates [3, 31]: 19789.4 pg/ml (2×) and 17222.7 pg/ml | Leptin Concentration (pg/ml), Mean [3, 32]: 15728.8 pg/mL | Leptin Concentration (pg/ml), single replicates [3, 32]: 14234.9 pg/mL and 17222.7 pg/mL | Leptin Concentration (pg/ml), Mean [3, 33]: 19092.9 pg/mL | Leptin Concentration (pg/ml), single replicates [3, 33]: 17222.7 pg/mL and 20963.1 pg/mL | Leptin Concentration (pg/ml), Mean [3, 34]: 18506.0 pg/mL | Leptin Concentration (pg/ml), single replicates [3, 34]: 19789.4 pg/mL and 17222.7 pg/mL | Leptin Concentration (pg/ml), Mean [3, 35]: 24092.8 pg/mL | Leptin Concentration (pg/ml), single replicates [3, 35]: 26106.3 pg/mL and 22079.2 pg/mL | Leptin Concentration (pg/ml), Mean [3, 36]: 20376.3 pg/mL | Leptin Concentration (pg/ml), single replicates [3, 36]: 19789.4 pg/mL and 20963.1 pg/mL
